Data published in patent US20100152434A1, “Protein Kinase-binding Nucleosides and Associated Methods” (priority 2007, published 2010).
Read-outs that look alike come from different tables or passages of the source.

What was measured:
[1] = test system: NCI-H226
[2] = test system: NCI-H322M; conditions: NCI-H322M
[3] = test system: NCI-H460
[4] = test system: NCI-H522
[5] = test system: HCT-116
[6] = test system: HCT-15
[7] = test system: HT29
[8] = test system: KM12
[9] = test system: UACC-257
[10] = test system: UACC-62
[11] = test system: OVCAR-3
[12] = test system: ACHN
[13] = test system: CAKI-1
[14] = test system: NCI-H322M; assay: cells; conditions: Homo sapiens, NCI-H322M, 48 h
[15] = test system: HCT-15; assay: cells; conditions: Homo sapiens, HCT-15, 48 h
[16] = test system: SF-539; assay: cells; conditions: Homo sapiens, SF-539, 48 h
[17] = test system: SNB-19; assay: cells; conditions: Homo sapiens, SNB-19, 48 h
[18] = test system: SNB-75; assay: cells; conditions: Homo sapiens, SNB-75, 48 h
[19] = test system: M14; assay: cells; conditions: Homo sapiens, M14, 48 h
[20] = test system: OVCAR-3; assay: cells; conditions: Homo sapiens, OVCAR-3, 48 h
[21] = test system: OVCAR-5; assay: cells; conditions: Homo sapiens, OVCAR-5, 48 h
[22] = test system: OVCAR-8; assay: cells; conditions: Homo sapiens, OVCAR-8, 48 h
[23] = test system: A498; assay: cells; conditions: Homo sapiens, A498, 48 h
[24] = test system: CAKI-1; assay: cells; conditions: Homo sapiens, CAKI-1, 48 h
[25] = test system: SN12C; assay: cells; conditions: Homo sapiens, 48 h
[26] = test system: UO-31; assay: cells; conditions: Homo sapiens, UO-31, 48 h
[27] = Log10 Concentration −4.0, Molar
[28] = Log10 Concentration −5.0, Molar
[29] = Log10 Concentration −6.0, Molar
[30] = Log10 Concentration −7.0, Molar
[31] = Log10 Concentration −8.0, Molar

## CCOC(=O)C[C@@H]1C(O[Si](C)(C)C(C)(C)C)[C@H](n2cnc3c(NC(=O)Nc4ccccc4)ncnc32)O[C@@H]1CNC(=O)NC (some centres unmarked) [Compound 10]
[1]; 48 h
  TGI: >1.00E−4 Molar
[1]; [27]
  Percent Growth: 55%
[1]; [28]
  Percent Growth: 71%
[1]; [29]
  Percent Growth: 102%
[1]; [30]
  Percent Growth: 105%
[1]; [31]
  Percent Growth: 101%
[2]; 48 h
  TGI: >1.00E−4 Molar
[2]; [27]
  Percent Growth: 72%
[2]; [28]
  Percent Growth: 89%
[2]; [29]
  Percent Growth: 95%
[2]; [30]
  Percent Growth: 90%
[2]; [31]
  Percent Growth: 105%
[3]; 48 h
  TGI: 2.50E−5 Molar
[3]; [27]
  Percent Growth: −49%
[3]; [28]
  Percent Growth: 32%
[3]; [29]
  Percent Growth: 101%
[3]; [30]
  Percent Growth: 102%
[3]; [31]
  Percent Growth: 102%
[4]; 48 h
  TGI: 8.57E−5 Molar
[4]; [27]
  Percent Growth: −2%
[4]; [28]
  Percent Growth: 32%
[4]; [29]
  Percent Growth: 83%
[4]; [30]
  Percent Growth: 85%
[4]; [31]
  Percent Growth: 89%
[5]; 48 h
  TGI: 1.61E−5 Molar
[5]; [27]
  Percent Growth: −88%
[5]; [28]
  Percent Growth: 23%
[5]; [29]
  Percent Growth: 78%
[5]; [30]
  Percent Growth: 113%
[5]; [31]
  Percent Growth: 93%
[6]; 48 h
  TGI: >1.00E−4 Molar
[6]; [27]
  Percent Growth: 43%
[6]; [28]
  Percent Growth: 47%
[6]; [29]
  Percent Growth: 94%
[6]; [30]
  Percent Growth: 96%
[6]; [31]
  Percent Growth: 99%
[7]; 48 h
  TGI: >1.00E−4 Molar
[7]; [27]
  Percent Growth: 3%
[7]; [28]
  Percent Growth: 17%
[7]; [29]
  Percent Growth: 104%
[7]; [30]
  Percent Growth: 105%
[7]; [31]
  Percent Growth: 104%
[8]; 48 h
  TGI: 2.09E−5 Molar
[8]; [27]
  Percent Growth: −28%
[8]; [28]
  Percent Growth: 13%
[8]; [29]
  Percent Growth: 105%
[8]; [30]
  Percent Growth: 112%
[8]; [31]
  Percent Growth: 107%
[9]; 48 h
  TGI: >1.00E−4 Molar
[9]; [27]
  Percent Growth: 9%
[9]; [28]
  Percent Growth: 34%
[9]; [29]
  Percent Growth: 99%
[9]; [30]
  Percent Growth: 102%
[9]; [31]
  Percent Growth: 102%
[10]; 48 h
  TGI: >1.00E−4 Molar
[10]; [27]
  Percent Growth: 60%
[10]; [28]
  Percent Growth: 82%
[10]; [29]
  Percent Growth: 97%
[10]; [30]
  Percent Growth: 102%
[10]; [31]
  Percent Growth: 100%
[11]; 48 h
  TGI: 1.72E−5 Molar
[11]; [27]
  Percent Growth: −53%
[11]; [28]
  Percent Growth: 16%
[11]; [29]
  Percent Growth: 116%
[11]; [30]
  Percent Growth: 115%
[11]; [31]
  Percent Growth: 114%
[12]; 48 h
  TGI: >1.00E−4 Molar
[12]; [27]
  Percent Growth: 35%
[12]; [28]
  Percent Growth: 47%
[12]; [29]
  Percent Growth: 96%
[12]; [30]
  Percent Growth: 97%
[12]; [31]
  Percent Growth: 107%
[13]; 48 h
  TGI: >1.00E−4 Molar
[13]; [27]
  Percent Growth: 7%
[13]; [28]
  Percent Growth: 88%
[13]; [29]
  Percent Growth: 99%
[13]; [30]
  Percent Growth: 95%
[13]; [31]
  Percent Growth: 88%
[14]
  GI50: > 100 µM
[14]; read-out: LC50
  CC50: > 100 µM
[15]
  GI50: 8.5 µM
[15]; read-out: LC50
  CC50: > 100 µM
[16]
  GI50: 5.19 µM
[16]; read-out: LC50
  CC50: > 100 µM
[17]
  GI50: 29 µM
[17]; read-out: LC50
  CC50: > 100 µM
[18]
  GI50: 4.56 µM
[18]; read-out: LC50
  CC50: > 100 µM
[19]
  GI50: 2.51 µM
[19]; read-out: LC50
  CC50: 78.6 µM
[20]
  GI50: 4.59 µM
[20]; read-out: LC50
  CC50: 91.3 µM
[21]
  GI50: 31.1 µM
[21]; read-out: LC50
  CC50: > 100 µM
[22]
  GI50: 4.92 µM
[22]; read-out: LC50
  CC50: > 100 µM
[23]
  GI50: 3.34 µM
[23]; read-out: LC50
  CC50: > 100 µM
[24]
  GI50: 29.7 µM
[24]; read-out: LC50
  CC50: > 100 µM
[25]
  GI50: 9.1 µM
[25]; read-out: LC50
  CC50: > 100 µM
[26]
  GI50: 12.1 µM
[26]; read-out: LC50
  CC50: 71.7 µM
